“And” between values parts separate entries of the source, which are not always exact repeats. Identical values can stand only once.
System: Erwinia amylovara
Assay: Measuring the efficiency against fire blight on inoculated apple blossoms
Format: in vivo
Settings: 0.06 % by weight in water (positive control); apple blossoms sprayed 1 h after inoculation, 6 days, vs water control
Experimental: For measuring the efficiency of the aqueous compositions, 24 blossoms of the apple varieties Braeburn, Jona Gold and Gala are placed in sugar solution and inoculated with a suspension of Erwinia amylovara at 10^6 bacterial cells. One hour after inoculation, the blossoms are sprayed, respectively, with the composition to be tested or with water, serving as a negative control, until completely wetted. These blossoms are incubated for 6 days at 20 to 23° C. and at a relative humidity of 100%.
The efficiency specifies the decrease of infested blossoms utilizing the composition to be tested in comparison to blossoms, which were treated with water only. All tests are conducted three to six times, and from the measured data the empirical mean of the efficiency, as well as the empirical standard deviation σ are calculated, whereby the standard deviation σ represents […] of the data from the arithmetic mean of the efficiency.

Question: For `[H]/N=C(/N)N[C@H]1[C@H](O)[C@@H](O)[C@H](O[C@@H]2O[C@@H](C)[C@](O)(C=O)[C@H]2O[C@@H]2O[C@@H](CO)[C@H](O)[C@@H](O)[C@@H]2NC)[C@@H](N/C(N)=N\[H])[C@@H]1O` [streptomycin], which mean of efficiency is on record?
Answer: 74% and 70% and 75%
